These results are taken from ChEMBL document CHEMBL1138128, “Phenolic P2/P3 core motif as thrombin inhibitors--design, synthesis, and X-ray co-crystal structure” (Bioorg Med Chem Lett, 2006).

One test addresses Trypsin (Homo sapiens, UniProt P07477+P07478+P35030). In words: Inhibitory activity against trypsin. The format is protein assay.
The next test deals with Prothrombin (Homo sapiens, UniProt P00734). In words: Inhibitory activity against thrombin.

pIC50: −log10 of the molar value.

One may read the IC50 as the point on the concentration scale where inhibition reaches its midpoint. High values mean weaker potency in that assay, low ones greater potency in that assay. For orientation: pIC50 means the negative decadic logarithm of the IC50, by convention in mol/L. Higher therefore signals a small IC50. On Trypsin, `Cc1ccnc(CNC(=O)Cc2c(C)ccc(NS(=O)(=O)c3cccc(Cl)c3)c2O)c1F` yielded an IC50 above 44000 nM. The negative logarithm of the IC50 (pIC50) against Prothrombin was 4.85.

`Cc1ccnc(CNC(=O)Cc2c(C)ccc(NCS(=O)(=O)c3cccc(Cl)c3)c2O)c1F` gave a concentration for half-maximal inhibition (IC50) at Trypsin above 44000 nM. On Prothrombin, this molecule gave a pIC50 of 4.82.

The molecule `Cc1ccc(S(=O)(=O)Nc2ccc(C)c(CC(=O)NCc3nccc(C)c3F)c2O)cc1Cl` registered an IC50 against Trypsin above 44000 nM. Moreover, at Prothrombin, the pIC50 is 4.70.

As to `Cc1ccc(NS(=O)(=O)c2ccccc2)c(O)c1CC(=O)NCc1ccc(C(=N)N)cc1.Cl`, the IC50 at Trypsin was found to be 600 nM. Also, at Prothrombin, the pIC50 is 7.01.

Molecule `COc1cccc(S(=O)(=O)Nc2ccc(C)c(CC(=O)NCc3ccc(C(=N)N)cc3)c2O)c1.Cl` yielded a half-inhibitory concentration (IC50) on Trypsin of 280 nM. The molecule also gave a pIC50 at Prothrombin of 7.80.

On to `Cc1ccc(NCC(=O)c2ccccc2)c(O)c1CC(=O)NCc1ccc(C(=N)N)cc1.Cl`, for which, at Trypsin, the IC50 stood at 4000 nM. The pIC50 against Prothrombin was 5.33.

In the case of `Cc1ccc(NS(=O)(=O)c2cccc(C(F)(F)F)c2)c(O)c1CC(=O)NCc1ccc(C(=N)N)cc1.Cl`, at Trypsin, the IC50 came to 2800 nM. The molecule also gave a negative logarithm of the IC50 (pIC50) against Prothrombin of 6.92.

Take `Cc1ccc(NCS(=O)(=O)c2ccccc2)c(O)c1CC(=O)NCc1ccc(C(=N)N)cc1.Cl`: the 50% inhibitory concentration (IC50) at Trypsin stood at 3100 nM. In addition, the negative-log IC50 (pIC50) against Prothrombin is 6.72.

The molecule `Cc1ccc(C)c(S(=O)(=O)Nc2ccc(C)c(CC(=O)NCc3ccc(C(=N)N)cc3)c2O)c1.Cl` gave an IC50 against Trypsin of 110 nM. The same molecule gave a pIC50 against Prothrombin of 7.60.

As to `Cc1ccc(NS(=O)(=O)c2cc(Cl)ccc2Cl)c(O)c1CC(=O)NCc1ccnc(N)c1.Cl`, on Trypsin, the 50% inhibitory concentration (IC50) is above 44000 nM. For the same molecule, the negative logarithm of the IC50 (pIC50) on Prothrombin was 6.00.

As to `Cc1ccc(NS(=O)(=O)c2ccc(Cl)cc2)c(O)c1CC(=O)NCc1ccc(C(=N)N)cc1.Cl`, the IC50 on Trypsin was determined as 940 nM. Moreover, the pIC50 at Prothrombin was 6.89.

With `Cc1ccc(NCS(=O)(=O)c2ccccc2)c(O)c1CC(=O)NCc1ccc(N)nc1C.Cl`, the IC50 on Trypsin is above 44000 nM. In addition, the negative logarithm of the IC50 (pIC50) against Prothrombin was 6.24.

On to `Cc1ccc(NS(=O)(=O)c2ccc(Cl)cc2F)c(O)c1CC(=O)NCc1ccc(C(=N)N)cc1.Cl`, for which, on Trypsin, the IC50 was found to be 680 nM. On Prothrombin, this molecule gave a negative logarithm of the IC50 (pIC50) of 7.09.

In turn, `Cc1ccc(S(=O)(=O)Nc2ccc(C)c(CC(=O)NCc3ccc(C(=N)N)cc3)c2O)cc1.Cl` showed a 50% inhibitory concentration (IC50) against Trypsin of 1100 nM. On Prothrombin, this molecule gave a pIC50 of 6.60.

For the molecule `Cc1ccc(NCNC(=O)c2ccccc2)c(O)c1CC(=O)NCc1ccc(C(=N)N)cc1.Cl`, at Trypsin, the half-inhibitory concentration (IC50) stood at 2700 nM. Besides, the pIC50 on Prothrombin is 5.62.

On Trypsin, `Cc1ccc(NS(=O)(=O)c2cccc(Cl)c2C)c(O)c1CC(=O)NCc1ccc(N)nc1C.Cl` had a half-maximal inhibitory concentration (IC50) above 44000 nM. This molecule showed a negative logarithm of the IC50 (pIC50) on Prothrombin of 6.72.

Take `COc1ccc(S(=O)(=O)Nc2ccc(C)c(CC(=O)NCc3ccc(C(=N)N)cc3)c2O)cc1.Cl`: the IC50 against Trypsin was found to be 910 nM. The same molecule had a negative logarithm of the IC50 (pIC50) at Prothrombin of 7.30.

On Trypsin, `Cc1ccc(NS(=O)(=O)c2cccc3ccccc23)c(O)c1CC(=O)NCc1ccc(C(=N)N)cc1.Cl` came in with an IC50 of 1100 nM.

Turning to `Cc1ccccc1S(=O)(=O)Nc1ccc(C)c(CC(=O)NCc2ccc(N)nc2C)c1O.Cl`, the IC50 at Trypsin was above 44000 nM. Further, the pIC50 at Prothrombin is 6.59.

For the molecule `Cc1ccc(S(=O)(=O)Nc2ccc(C)c(CC(=O)NCc3ccc(N)nc3C)c2O)cc1F.Cl`, the IC50 against Trypsin is above 44000 nM. The molecule also showed a pIC50 against Prothrombin of 6.23.

In turn, `COc1ccc(S(=O)(=O)Nc2ccc(C)c(CC(=O)NCc3ccc(C(=N)N)cc3)c2O)cc1OC.Cl` registered an IC50 on Trypsin of 340 nM. The pIC50 on Prothrombin is 7.41.

For `Cc1ccc(NS(=O)(=O)c2ccccc2Cl)c(O)c1CC(=O)NCc1ccnc(N)c1.Cl`, the IC50 against Trypsin was above 44000 nM. At Prothrombin, this molecule showed a pIC50 of 5.52.
